From ChEMBL document CHEMBL3745645, “Synthesis, in vitro antitumor activity, dihydrofolate reductase inhibition, DNA intercalation and structure-activity relationship studies of 1,3,5-triazine analogues” (Bioorg Med Chem Lett, 2016)
Active and inactive are the calls of the source. The rule behind the calls is not given here.

Columns and labels:
Type in all cases: functional
[1] = Cytotoxicity against human IGROV1 cells at 10 uM after 48 hrs by SRB assay; conditions: IGROV-1, 48 h, read-out: GI
CAKI-1 = test: Cytotoxicity against human Caki1 cells at 10 uM after 48 hrs by SRB assay
SK-MEL-2 = test: Cytotoxicity against human SK-MEL-2 cells at 10 uM after 48 hrs by SRB assay; conditions: SK-MEL-2, 48 h, read-out: GI
[2] = Cytotoxicity against human MOLT4 cells at 10 uM after 48 hrs by SRB assay; conditions: MOLT-4, 48 h, read-out: GI
MDA-MB-468 = test: Cytotoxicity against human MDA-MB-468 cells at 10 uM after 48 hrs by SRB assay; conditions: MDA-MB-468, 48 h, read-out: GI
[3] = Cytotoxicity against human SF295 cells at 10 uM after 48 hrs by SRB assay; conditions: SF-295, 48 h, read-out: GI
T47D = test: Cytotoxicity against human T47D cells at 10 uM after 48 hrs by SRB assay; conditions: read-out: GI
[4] = Cytotoxicity against human RXF393 cells at 10 uM after 48 hrs by SRB assay; conditions: RXF 393, 48 h, read-out: GI
SK-MEL-5 = test: Cytotoxicity against human SK-MEL-5 cells at 10 uM after 48 hrs by SRB assay; conditions: SK-MEL-5, 48 h, read-out: GI
[5] = Cytotoxicity against human LOXIMVI cells at 10 uM after 48 hrs by SRB assay; conditions: LOX IMVI, read-out: GI
[6] = Cytotoxicity against human HL-60(TB) cells at 10 uM after 48 hrs by SRB assay; conditions: HL-60, 48 h, read-out: GI
ACHN = test: Cytotoxicity against human ACHN cells at 10 uM after 48 hrs by SRB assay; conditions: read-out: GI
[7] = Cytotoxicity against human SF268 cells at 10 uM after 48 hrs by SRB assay; conditions: SF-268, 48 h, read-out: GI
SR = test: Cytotoxicity against human SR cells at 10 uM after 48 hrs by SRB assay; conditions: read-out: GI
[8] = Cytotoxicity against human UACC257 cells at 10 uM after 48 hrs by SRB assay; conditions: UACC-257, 48 h, read-out: GI
[9] = Cytotoxicity against human DU145 cells at 10 uM after 48 hrs by SRB assay; conditions: DU-145, 48 h, read-out: GI
[10] = Cytotoxicity against human HOP62 cells at 10 uM after 48 hrs by SRB assay; conditions: HOP-62, 48 h, read-out: GI
[11] = Cytotoxicity against human BT549 cells at 10 uM after 48 hrs by SRB assay; conditions: BT-549, 48 h, read-out: GI
NCI-H460 = test: Cytotoxicity against human NCI-H460 cells at 10 uM after 48 hrs by SRB assay; conditions: NCI-H460, 48 h, read-out: GI
Malme-3M = test: Cytotoxicity against human MALME-3M cells at 10 uM after 48 hrs by SRB assay; conditions: read-out: GI
[12] = Cytotoxicity against human HCT15 cells at 10 uM after 48 hrs by SRB assay; conditions: HCT-15, 48 h, read-out: GI
[13] = Cytotoxicity against human TK10 cells at 10 uM after 48 hrs by SRB assay; conditions: TK-10, 48 h, read-out: GI
[14] = Cytotoxicity against human SKOV3 cells at 10 uM after 48 hrs by SRB assay; conditions: SK-OV-3, 48 h, read-out: GI
[15] = Cytotoxicity against human COLO205 cells at 10 uM after 48 hrs by SRB assay; conditions: COLO 205, 48 h, read-out: GI
KM12 = test: Cytotoxicity against human KM12 cells at 10 uM after 48 hrs by SRB assay; conditions: KM12, 48 h, read-out: GI
MCF7 = test: Cytotoxicity against human MCF7 cells at 10 uM after 48 hrs by SRB assay; conditions: MCF7, 48 h, read-out: GI
[16] = Cytotoxicity against human RPMI8226 cells at 10 uM after 48 hrs by SRB assay; conditions: RPMI-8226, 48 h, read-out: GI
M14 = test: Cytotoxicity against human M14 cells at 10 uM after 48 hrs by SRB assay; conditions: M14, 48 h, read-out: GI
[17] = Cytotoxicity against human NCI-ADR-RES cells at 10 uM after 48 hrs by SRB assay; conditions: read-out: GI
A549 = test: Cytotoxicity against human A549 cells at 10 uM after 48 hrs by SRB assay; conditions: A549, 48 h, read-out: GI
SN12C = test: Cytotoxicity against human SN12C cells at 10 uM after 48 hrs by SRB assay; conditions: read-out: GI
[18] = Cytotoxicity against human SF539 cells at 10 uM after 48 hrs by SRB assay; conditions: SF-539, 48 h, read-out: GI
[19] = Cytotoxicity against human Hs 578T cells at 10 uM after 48 hrs by SRB assay; conditions: read-out: GI
OVCAR-5 = test: Cytotoxicity against human OVCAR5 cells at 10 uM after 48 hrs by SRB assay
NCI-H226 = test: Cytotoxicity against human NCI-H226 cells at 10 uM after 48 hrs by SRB assay; conditions: NCI-H226, 48 h, read-out: GI
SK-MEL-28 = test: Cytotoxicity against human SK-MEL-28 cells at 10 uM after 48 hrs by SRB assay; conditions: SK-MEL-28, 48 h, read-out: GI
[20] = Cytotoxicity against human SNB75 cells at 10 uM after 48 hrs by SRB assay; conditions: SNB-75, 48 h, read-out: GI
[21] = Cytotoxicity against human HCC2998 cells at 10 uM after 48 hrs by SRB assay; conditions: HCC 2998, 48 h, read-out: GI
CCRF-CEM = test: Cytotoxicity against human CCRF-CEM cells at 10 uM after 48 hrs by SRB assay
A498 = test: Cytotoxicity against human A498 cells at 10 uM after 48 hrs by SRB assay; conditions: A498, 48 h, read-out: GI
[22] = Cytotoxicity against human HCT116 cells at 10 uM after 48 hrs by SRB assay; conditions: HCT-116, 48 h, read-out: GI
[23] = Cytotoxicity against human OVCAR3 cells at 10 uM after 48 hrs by SRB assay; conditions: OVCAR-3, 48 h, read-out: GI
NCI-H522 = test: Cytotoxicity against human NCI-H522 cells at 10 uM after 48 hrs by SRB assay; conditions: NCI-H522, 48 h, read-out: GI
U-251 = test: Cytotoxicity against human U251 cells at 10 uM after 48 hrs by SRB assay; conditions: U-251, 48 h, read-out: GI
[24] = Cytotoxicity against human SW620 cells at 10 uM after 48 hrs by SRB assay; conditions: SW-620, 48 h, read-out: GI
K562 = test: Cytotoxicity against human K562 cells at 10 uM after 48 hrs by SRB assay; conditions: K562, 48 h, read-out: GI
[25] = Cytotoxicity against human UO31 cells at 10 uM after 48 hrs by SRB assay; conditions: UO-31, 48 h, read-out: GI
[26] = Cytotoxicity against human OVCAR4 cells at 10 uM after 48 hrs by SRB assay; conditions: OVCAR-4, 48 h, read-out: GI
HT-29 = test: Cytotoxicity against human HT-29 cells at 10 uM after 48 hrs by SRB assay; conditions: HT-29, 48 h, read-out: GI
[27] = Cytotoxicity against human OVCAR8 cells at 10 uM after 48 hrs by SRB assay; conditions: OVCAR-8, 48 h, read-out: GI
[28] = Cytotoxicity against human SNB19 cells at 10 uM after 48 hrs by SRB assay; conditions: SNB-19, 48 h, read-out: GI
MDA-MB-231 = test: Cytotoxicity against human MDA-MB-231 cells at 10 uM after 48 hrs by SRB assay; conditions: MDA-MB-231, 48 h, read-out: GI
786-0 = test: Cytotoxicity against human 786-0 cells at 10 uM after 48 hrs by SRB assay; conditions: 786-0, 48 h, read-out: GI
MDA-MB-435 = test: Cytotoxicity against human MDA-MB-435 cells at 10 uM after 48 hrs by SRB assay; conditions: MDA-MB-435, 48 h, read-out: GI
[29] = Cytotoxicity against human HOP92 cells at 10 uM after 48 hrs by SRB assay; conditions: HOP-92, 48 h, read-out: GI

## Cc1nc2cc(Nc3nc(Nc4ccc(F)cc4)nc(-c4ccccc4)n3)ccc2n1Cc1ccccc1
[1]
  inhibition of growth at 10 µM: 31%
CAKI-1
  growth inhibition (GI): inactive
SK-MEL-2
  inhibition of growth at 10 µM: 25.4%
[2]
  inhibition of growth at 10 µM: 41.8%
MDA-MB-468
  inhibition of growth at 10 µM: 27.6%
[3]
  inhibition of growth at 10 µM: 17.3%
T47D
  inhibition of growth at 10 µM: 55.5%
[4]
  inhibition of growth at 10 µM: 30.9%
SK-MEL-5
  inhibition of growth at 10 µM: 14.5%
[5]
  inhibition of growth at 10 µM: 12.3%
[6]
  inhibition of growth at 10 µM: 36.3%
ACHN
  inhibition of growth at 10 µM: 23.6%
[7]
  inhibition of growth at 10 µM: 23.8%
SR
  inhibition of growth at 10 µM: 68.2%
[8]
  inhibition of growth at 10 µM: 18.7%
[9]
  inhibition of growth at 10 µM: 2.93%
[10]
  inhibition of growth at 10 µM: 5.32%
[11]
  inhibition of growth at 10 µM: 4.6%
NCI-H460
  inhibition of growth at 10 µM: 16.8%
Malme-3M
  inhibition of growth at 10 µM: 11.4%
[12]
  inhibition of growth at 10 µM: 32.4%
[13]
  inhibition of growth at 10 µM: 0.81%
[14]
  inhibition of growth at 10 µM: 1.78%
[15]
  inhibition of growth at 10 µM: 29.5%
KM12
  inhibition of growth at 10 µM: 39.8%
MCF7
  inhibition of growth at 10 µM: 54.9%
[16]
  inhibition of growth at 10 µM: 53%
M14
  inhibition of growth at 10 µM: 34.1%
[17]
  inhibition of growth at 10 µM: 29.5%
A549
  inhibition of growth at 10 µM: 32.5%
SN12C
  inhibition of growth at 10 µM: 21.9%
[18]
  inhibition of growth at 10 µM: 0.21%
[19]
  inhibition of growth at 10 µM: 20.4%
OVCAR-5
  growth inhibition (GI): inactive
NCI-H226
  inhibition of growth at 10 µM: 19.3%
SK-MEL-28
  inhibition of growth at 10 µM: 5.63%
[20]
  inhibition of growth at 10 µM: 28.4%
[21]
  inhibition of growth at 10 µM: 12%
CCRF-CEM
  growth inhibition (GI): inactive
A498
  inhibition of growth at 10 µM: 23.2%
[22]
  inhibition of growth at 10 µM: 39.7%
[23]
  inhibition of growth at 10 µM: 18.8%
NCI-H522
  inhibition of growth at 10 µM: 24.1%
U-251
  inhibition of growth at 10 µM: 36.6%
[24]
  inhibition of growth at 10 µM: 15.4%
K562
  inhibition of growth at 10 µM: 38.2%
[25]
  inhibition of growth at 10 µM: 43.4%
[26]
  inhibition of growth at 10 µM: 39.8%
HT-29
  inhibition of growth at 10 µM: 40.6%
[27]
  inhibition of growth at 10 µM: 32.2%
[28]
  inhibition of growth at 10 µM: 31.5%
MDA-MB-231
  inhibition of growth at 10 µM: 9.76%
786-0
  inhibition of growth at 10 µM: 18.4%
MDA-MB-435
  inhibition of growth at 10 µM: 40%
[29]
  inhibition of growth at 10 µM: 35.6%
